This note sets out measurements from US20240400553A1, “AMINE BASED MATRIPTASE 2 INHIBITORS AND USES THEREOF” (Disc Medicine, Inc., priority 2023, published 2024).

A value given as a limit tells only on which side of the number the result lay.

For the first assay, the target named is T1, Human Recombinant Matriptase 2 (Homo sapiens, UniProt Q8IU80).
T1 construct: made in house
T1 sequence (Q8IU80 1-811): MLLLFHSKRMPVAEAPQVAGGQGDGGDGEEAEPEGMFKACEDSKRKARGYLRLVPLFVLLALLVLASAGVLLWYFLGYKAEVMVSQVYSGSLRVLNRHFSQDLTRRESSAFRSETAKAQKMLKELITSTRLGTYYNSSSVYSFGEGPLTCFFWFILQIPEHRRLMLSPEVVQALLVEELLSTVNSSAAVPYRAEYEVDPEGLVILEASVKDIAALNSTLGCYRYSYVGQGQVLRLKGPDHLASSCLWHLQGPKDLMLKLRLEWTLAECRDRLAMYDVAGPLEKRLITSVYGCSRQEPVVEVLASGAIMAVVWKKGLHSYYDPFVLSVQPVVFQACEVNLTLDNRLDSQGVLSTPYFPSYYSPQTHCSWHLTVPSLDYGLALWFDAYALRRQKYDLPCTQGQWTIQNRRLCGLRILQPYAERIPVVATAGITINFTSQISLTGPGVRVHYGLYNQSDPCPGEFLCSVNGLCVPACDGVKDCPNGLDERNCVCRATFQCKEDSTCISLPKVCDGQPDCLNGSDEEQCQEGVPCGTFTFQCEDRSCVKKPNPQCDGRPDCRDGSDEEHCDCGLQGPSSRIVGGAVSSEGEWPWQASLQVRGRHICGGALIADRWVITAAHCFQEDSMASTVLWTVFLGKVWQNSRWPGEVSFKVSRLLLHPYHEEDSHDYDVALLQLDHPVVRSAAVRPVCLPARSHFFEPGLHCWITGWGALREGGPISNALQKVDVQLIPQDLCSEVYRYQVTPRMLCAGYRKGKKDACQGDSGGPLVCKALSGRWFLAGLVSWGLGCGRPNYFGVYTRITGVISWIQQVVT
The experiment in a line: Matriptase 2 inhibition, fluorescence based assay (Method I). In kind it is biochemical. Conditions: Table A; Ki of Matriptase-2; read-out: Mat-2 Ki. As for the experimental part:
• Method I: Test compounds were evaluated for their potential to inhibit Human Recombinant Matriptase 2 (in-house) using fluorescence based assay. The concentration of Recombinant Matriptase 2 and the substrate used in the assay was: 3.5 nM (In-house Matriptase 2) and 62 μM (Boc-Gln-Ala-Arg-7-amido-4-methyl coumarin hydrobromide −Cat log: I-1550 from Bachem) respectively. The assay buffer used was 50 mM TRIS pH 7.5, 150 mM NaCl, 0.01% Gelatin TCL059 Himedia). The assay was performed using 384 well black flat bottom plate from grenier (Cat log: 781076) at 25° C. The enzyme and compound were preincubated for 30 mins, the plate was read at 60 mins after substrate addition at wavelength Ex: 360/Em: 480 nm. The final assay volume was 20 μl. A stock solution of compounds was initially prepared in DMSO and appropriate dilutions were made and IC50 was determined for all the compounds (final DMSO conc in the assay was 1%). All the measurements were carried out using the Spectramax M5, Molecular devices.
To determine Ki values, dose response curves were generated by plotting percentage inhibition as a function of inhibitor concentration and the data was fitted to sigmoidal non-linear regression equation (variable slope) using Graph Pad prism software V8.
As a reminder, the Ki is a dissociation constant, usually derived from enzyme kinetics or from competition with a known ligand. As to `C[C@H](OC(=O)c1ccccc1)OC(=O)c1cc2ccc(CN)nc2n1Cc1cc(NS(=O)(=O)Cc2ccccc2)cc2ccccc12` (racemic) [Compound 124, 1-[6-(aminomethyl)-1-{[3-(phenylmethanesul-fonamido)naphthalen-1-yl]methyl}-1H-pyrrolo-[2,3-b]pyridine-2-car-bonyloxy]ethyl benzoate], the Ki lay in the range of 500 to 3000 nM.

For `COCCN1CC[C@H](COC(=O)c2cc3ccc(CN)nc3n2Cc2cc(NS(=O)(=O)Cc3ccccc3)cc3ccccc23)C1` (racemic) [Compound 138, rac-[(3R)-1-(2-methoxy-ethyl)pyrrolidin-3-yl]-methyl 6-(aminometh-yl)-1-{[3-(phenylmeth-anesulfonamido)naph-thalen-1-yl]methyl}-1H-pyrrolo[2,3-b]pyridine-2-carboxylate], the Ki is ≤ 100 nM.

In the case of `C[C@@H](CCOC(=O)c1cc2ccc(CN)nc2n1Cc1cc(NS(=O)(=O)Cc2ccccc2)cc2ccccc12)N1CCOCC1` (racemic) [Compound 143, rac-(3R)-3-(morpholin-4-yl)butyl 6-(aminometh-yl)-1-{[3-(phenylmeth-anesulfonamido)naph-thalen-1-yl]methyl}-1H-pyrrolo-[2,3-b]pyridine-2-carboxylate], the Ki was ≤ 100 nM.

Consider `COCCN1CCC[C@H](COC(=O)c2cc3ccc(CN)nc3n2Cc2cc(NS(=O)(=O)Cc3ccccc3)cc3ccccc23)C1` (racemic) [Compound 144, rac-[(3R)-1-(2-methoxy-ethyl)piperidin-3-yl]-methyl 6-(aminometh-yl)-1-(phenylmethane-sulfonamido)naphthalen-1-yl]methyl}-1H-pyrrolo-[2,3-b]pyridine-2-car-boxylate], for which the Ki was ≤ 100 nM.

`C[C@H](COC(=O)c1cc2ccc(CN)nc2n1Cc1cc(NS(=O)(=O)Cc2ccccc2)cc2ccccc12)CN1CCOCC1` (racemic) [Compound 145, rac-(2R)-2-methyl-3-(morpholin-4-yl)propyl 6-(aminomethyl)-1-{[3-(phenylmethanesulfon-amido)naphthalen-1-yl]-methyl}-1H-pyrrolo[2,3-b]pyridine-2-carboxylate]: the Ki was ≤ 100 nM.

As to `COCCN1CCC[C@H](COC(=O)c2cc3ccc(CN)nc3n2Cc2cc(NS(=O)(=O)Cc3ccsc3)cc3ccccc23)C1` (racemic) [Compound 166, [1-(2-methoxyethyl)-piperidin-3-yl]methyl 6-(aminomethyl)-1-({3-[(thiophen-3-yl)methane-sulfonamido]naphthalen-1-yl}methyl)-1H-pyr-rolo[2,3-b]pyridine-2-carboxylate], the Ki was ≤ 100 nM.

As for `COCCN1CC[C@H](COC(=O)c2cc3ccc(CN)nc3n2Cc2cc(NS(=O)(=O)Cc3ccsc3)cc3ccccc23)C1` (racemic) [Compound 172, [1-(2-methoxyethyl)-pyrrolidin-3-yl]methyl 6-(aminomethyl)-1-({3-[(thiophen-3-yl)methane-sulfonamido]naphthalen-1-yl}methyl)-1H-pyr-rolo[2,3-b]pyridine-2-carboxylate], the Ki was ≤ 100 nM.

`COCCN1CCCC(COC(=O)c2cc3ccc(CN)nc3n2Cc2cc(NS(=O)(=O)Cc3c(C)cccc3C)cc3ccccc23)C1` (racemic) [Compound 193, [1-(2-methoxyethyl)-piperidin-3-yl]methyl 6-(aminomethyl)-1-({3-[(2,6-dimethylphenyl)-methanesulfonamido]-naphthalen-1-yl}meth-yl)-1H-pyrrolo[2,3-b]-pyridine-2-carboxylate]: the Ki was ≤ 100 nM.

As to `COCCN1CC[C@H](COC(=O)c2cc3ccc(CN)nc3n2Cc2cc(NS(=O)(=O)Cc3c(C)cccc3C)cc3ccccc23)C1` (racemic) [Compound 194, [1-(2-methoxyethyl)pyr-rolidin-3-yl]methyl 6-(aminomethyl)-1-({3-[(2,6-dimethylphenyl)-methanesulfonamido]-naphthalen-1-yl}meth-yl)-1H-pyrrolo[2,3-b]-pyridine-2-carboxylate], the Ki was ≤ 100 nM.

Still in this assay, the particulars now being: Table A; Ki of Matriptase-2 given as class symbols; read-out: Mat-2 Ki.
Regarding `NCc1ccc2cc(C(=O)O)n(Cc3cc(NS(=O)(=O)CC4CNCCO4)cc4ccccc34)c2n1` (racemic) [Compound 224, 6-(aminomethyl)-1-({3-[(morpholin-2-yl)-methanesulfonamido]-naphthalen-1-yl}meth-yl)-1H-pyrrolo[2,3-b]-pyridine-2-carboxylic acid], the Ki was 100 to 500 nM.

Consider `C[C@@H](C(=O)N(C)C)S(=O)(=O)Nc1cc(Cn2c(C(=O)O)cc3ccc(CN)nc32)c2ccccc2c1` (racemic) [Compound 255, rac-6-(aminomethyl)-1-({3-(dimethylcarbam-oyl)ethanesulfonamido]-naphthalen-1-yl}methyl)-1H-pyrrolo[2,3-b]pyr-idine-2-carboxylic acid], for which the Ki was ≤ 100 nM.

`NCc1ccc2cc(C(=O)O)n(Cc3cc(NS(=O)(=O)C[C@H]4CCCO4)cc4ccccc34)c2n1` (racemic) [Compound 257, rac-6-(aminomethyl)-1-[(3-{[(2R)-oxolan-2-yl]methanesulfonamido}-naphthalen-1-yl)methyl]-1H-pyrrolo[2,3-b]pyr-idine-2-carboxylic acid]: the Ki fell in the range of 100 to 500 nM.

As to `NCc1ccc2cc(C(=O)O)n(Cc3cc(NS(=O)(=O)C[C@H]4COCCN4)cc4ccccc34)c2n1` (racemic) [Compound 261, 6-(aminomethyl)-1-({3-[(morpholin-3-l)methane-sulfonamido]naphthalen-1-yl}methyl)-1H-pyr-rolo[2,3-b]pyridine-2-carboxylic acid], the Ki lay in the range of 100 to 500 nM.

As to `NCc1ccc2cc(C(=O)O)n(Cc3cc(NS(=O)(=O)C[C@H]4CCOC4)cc4ccccc34)c2n1` (racemic) [Compound 262, rac-6-(aminomethyl)-1-[(3-{[(3R)-oxolan-3-yl]-methanesulfonamido}-naphthalen-1-yl)methyl]-1H-pyrrolo[2,3-b]pyr-idine-2-carboxylic acid], the inhibition constant (Ki) fell in the range of 100 to 500 nM.

Turning to `CC(=O)O[C@H](C)OC(=O)c1cc2ccc(CN)nc2n1Cc1cc(NS(=O)(=O)CC2CCNCC2)cc2ccccc12` (racemic) [Compound 263, 1-[6-(aminomethyl)-1-({3-[(piperidin-4-yl)-methanesulfonamido]-naphthlen-1-yl}methyl)-1H-pyrrolo[2,3-b]pyr-idine-2-carbonyloxy]-ethyl acetate], the Ki was 100 to 500 nM.

On to `NCc1ccc2cc(C(=O)O)n(Cc3cc(NS(=O)(=O)[C@H]4CCOC4)cc4ccccc34)c2n1` (racemic) [Compound 273, rac-6-(aminomethyl)-1-({3-[(3R)-oxolane-3-sulfonamido]naphthalen-1-yl}methyl)-1H-pyr-rolo[2,3-b]pyridine-2-carboxylic acid], for which the Ki fell in the range of 500 to 3000 nM.

As for `CC(C)(C)OC(=O)N1CCOC[C@@H]1CS(=O)(=O)Nc1cc(Cn2c(C(=O)O)cc3ccc(CN)nc32)c2ccccc2c1` (racemic) [Compound 277, 6-(aminomethyl)-1-{[3-({4-[(tert-butoxy)car-bonyl]morpholin-3-yl}-methanesulfonamido)-naphthalen-1-yl]methyl}-1H-pyrrolo[2,3-b]pyr-idine-2-carboxylic acid], the Ki is 500 to 3000 nM.

Consider `CCN1C[C@@H](S(=O)(=O)Nc2cc(Cn3c(C(=O)O)cc4ccc(CN)nc43)c3ccccc3c2)CC1=O` (racemic) [Compound 282, rac-6-(aminomethyl)-1-({3-[(3R)-1-ethyl-5-oxopyrrolidine-3-sulfon-amido]naphthalen-1-yl}-methyl)-1H-pyrrolo[2,3-b]pyridine-2-carboxylic acid], for which the Ki is 500 to 3000 nM.

Turning to `C[C@H]1CCC(C)(C)N1C(=O)Nc1cc(Cn2c(C(=O)O)cc3ccc(CN)nc32)c2ccccc2c1` (racemic) [Compound 302, rac-6-(aminomethyl)-1-[(3-{[(SR)-2,2,5-trimeth-ylpyrrolidine-1-carbon-yl]amino}naphthalen-1-yl)methyl]-1H-pyrrolo-[2,3-b]pyridine-2-carbox-ylic acid], the Ki is 500 to 3000 nM.

For `CC(C)[C@H]1CCN(C(=O)Nc2cc(Cn3c(C(=O)O)cc4ccc(CN)nc43)c3ccccc3c2)C1` (racemic) [Compound 303, rac-6-(aminomethyl)-1-[(3-{[(3R)-3-(propan-2-yl)pyrrolidine-1-carbon-yl]amino}naphthalen-1-yl)methyl]-1H-pyrrolo-[2,3-b]pyridine-2-car-boxylic acid], the Ki lay within 500 to 3000 nM.
